Source: the supplement of paper PMC7600603

Assays:
DLD1 NRF2-WT [1] = assay: drug sensitivity score (DSS) cytotoxicity (DSS score); higher = more toxic; extreme values may be limits of the assay; settings: 72 h; CellTox Green cytotoxicity
How it was run: (§1)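 TC50 and drug sensitivity score, a normalised area under the curve, were derived by logistic dose-response fits of cytotoxicity. The cells were an isogenic DLD1 colorectal cancer pair, NRF2 wild-type or CRISPR-edited, kept in DMEM with 10% FBS. Compounds were tested in 384-well plates at 5 concentrations across a 10,000-fold range for 72 h. Readings with CellTox Green on a Pherastar FS reader were normalised to vehicle wells and 100-μM positive-control wells.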

DLD1 NRF2-GOF [2] = assay: as above; settings: 72 h; CellTox Green cytotoxicity
How it was run: as §1

DLD1 NRF2-WT [3] = assay: drug sensitivity score (DSS) viability (DSS score); higher = more sensitive; extreme values may be limits of the assay; settings: 72 h; CellTiter-Glo viability
How it was run: (§2)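 DLD1 colorectal cancer cells, an isogenic pair either NRF2 wild-type or carrying a CRISPR gain-of-function, were cultured in DMEM with 10% FBS and treated in 384-well plates with library compounds at 5 concentrations across a 10,000-fold range. CellTiter-Glo viability was read on a Pherastar FS reader after 72 h and normalised to vehicle wells and 100-μM positive-control wells. Four-parameter logistic dose-response fits were applied. EC50 and drug sensitivity score, a normalised area under the curve, were taken from these fits.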

DLD1 NRF2-GOF [4] = assay: as above; settings: 72 h; CellTiter-Glo viability
How it was run: as §2

DLD1 NRF2-WT [5] = settings: 72 h; CellTiter-Glo viability
How it was run: as §2

DLD1 NRF2-GOF [6] = settings: 72 h; CellTiter-Glo viability
How it was run: as §2

DLD1 NRF2-WT [7] = assay: TC50 cytotoxicity; higher = less toxic; settings: 72 h; CellTox Green cytotoxicity
How it was run: as §1

DLD1 NRF2-GOF [8] = assay: TC50 cytotoxicity; higher = less toxic; settings: 72 h; CellTox Green cytotoxicity
How it was run: as §1

| SMILES | drug sensitivity score (DLD1 NRF2-WT [1]) | drug sensitivity score (DLD1 NRF2-GOF [2]) | drug sensitivity score (DLD1 NRF2-WT [3]) | drug sensitivity score (DLD1 NRF2-GOF [4]) | EC50 viability (DLD1 NRF2-WT [5]) [µM] | EC50 viability (DLD1 NRF2-GOF [6]) [µM] | TC50 cytotoxicity (DLD1 NRF2-WT [7]) [µM] | TC50 cytotoxicity (DLD1 NRF2-GOF [8]) [µM] |
| --- | --- | --- | --- | --- | --- | --- | --- | --- |
| Cc1ncc(-c2ccnc(Nc3ccc(S(C)(=O)=O)cc3)n2)n1C(C)C [AZD-5438] | 0.5 | 1.9 | 10.8 | 8.7 | 1.02 | 1.44 | > 10 | > 10 |
| Cc1cc([C@@H](C)Nc2ccccc2C(=O)O)c2nc(N3CCOCC3)cc(=O)n2c1 [AZD-6482] | 0 | 0 | 0.1 | 0 | > 2.5 | > 2.5 | > 2.5 | > 2.5 |
| CCN1CCN(Cc2ccc(Nc3ncc(F)c(-c4cc(F)c5nc(C)n(C(C)C)c5c4)n3)nc2)CC1 [Abemaciclib] | 0 | 0 | 11.5 | 6.6 | 0.0266 | 0.134 | > 2.5 | > 2.5 |
| CN(C)Cc1c(C(=O)NCCOc2ccc(C(=O)NO)cc2)oc2ccccc12 [Abexinostat] | 7.5 | 0.7 | 14 | 10.4 | 0.582 | 0.832 | 1.25 | > 10 |
| CC#CC(=O)N1CCC[C@H]1c1nc(-c2ccc(C(=O)Nc3ccccn3)cc2)c2c(N)nccn12 [Acalabrutinib] | 0 | 0 | 1.7 | 4 | 0.284 | 0.11 | > 1 | > 1 |
| COc1cc(C)c(/C=C/C(C)=C/C=C/C(C)=C/C(=O)O)c(C)c1C [Acitretin] | 0 | 0 | 15.5 | 10.3 | 0.0202 | 0.103 | > 10 | > 10 |
| CN(C)C/C=C/C(=O)Nc1cc2c(Nc3ccc(F)c(Cl)c3)ncnc2cc1O[C@H]1CCOC1 [Afatinib] | 0 | 0 | 3.3 | 2.9 | 0.148 | 0.145 | > 1 | > 1 |
| COc1cccc2c1C(=O)c1c(O)c3c(c(O)c1C2=O)C[C@@](O)(/C(CO)=N/NC(=O)CCCCCN1C(=O)C=CC1=O)C[C@@H]3O[C@H]1C[C@H](N)[C@H](O)[C@H](C)O1 [Aldoxorubicin] | 0 | 0 | 8.5 | 7.6 | 0.137 | 0.149 | > 1 | > 1 |
| COc1cc(Nc2ncc3c(n2)-c2ccc(Cl)cc2C(c2c(F)cccc2OC)=NC3)ccc1C(=O)O [Alisertib] | 2.8 | 6.6 | 10.3 | 15.9 | 0.0279 | 0.0478 | 0.939 | 0.205 |
| CN1CC[C@H](c2c(O)cc(O)c3c(=O)cc(-c4ccccc4Cl)oc23)[C@H](O)C1 [Alvocidib] | 0.8 | 0 | 20.1 | 16.2 | 0.156 | 0.266 | > 10 | > 10 |
| COc1cc(NS(C)(=O)=O)ccc1Nc1c2ccccc2nc2ccccc12 [Amsacrine] | 0.7 | 0 | 4.4 | 6.2 | 2.4 | 1.22 | > 10 | > 10 |
| Nc1ncn([C@@H]2O[C@H](CO)[C@@H](O)[C@H]2O)c(=O)n1 [Azacitidine] | 0 | 0 | 1 | 3.3 | 4.01 | 1.38 | > 10 | > 10 |
| Cc1cc(-c2nc(-c3ccc(OC(F)(F)F)cc3)no2)nn1Cc1ccnc(N2CCN(C3CC3)CC2)c1 [BAY 87-2243] | 0 | 0 | 16.2 | 1.7 | 0.0009 | > 1 | > 1 | > 1 |
| O=C1CCc2c(Oc3ccc4c(c3)[C@@H]3[C@H](O4)[C@H]3c3nc4cc(C(F)(F)F)ccc4[nH]3)ccnc2N1 [BGB-283] | 0 | 0 | 5 | 1.5 | 1.62 | 4.13 | > 10 | > 10 |
| O=C(/C=C/c1cccc(S(=O)(=O)Nc2ccccc2)c1)NO [Belinostat] | 2.6 | 0 | 9.9 | 7.1 | 1.1 | 1.26 | 1.53 | > 10 |
| N#CC(c1ccnc(OCc2ccc(CN3CCOCC3)cc2)n1)c1nc2ccccc2s1 (stereo not drawn) [Bentamapimod] | 0 | 0 | 0 | 0 | > 10 | > 10 | > 10 | > 10 |
| C=C(c1ccc(C(=O)O)cc1)c1cc2c(cc1C)C(C)(C)CCC2(C)C [Bexarotene] | 0 | 0 | 0 | 3.9 | > 10 | 1.03 | > 10 | > 10 |
| COc1cc(Nc2c(C#N)cnc3cc(OCCCN4CCN(C)CC4)c(OC)cc23)c(Cl)cc1Cl [Bosutinib] | 3.8 | 3.1 | 10 | 9.3 | 1.22 | 1.48 | 3.5 | 3.43 |
| COc1cc(N2CCC(N3CCN(C)CC3)CC2)ccc1Nc1ncc(Cl)c(Nc2ccccc2P(C)(C)=O)n1 [Brigatinib] | 0 | 0 | 1.1 | 3.4 | 0.399 | 0.0551 | > 1 | > 1 |
| CCC/C=C/C=C/C(=O)O[C@H]1/C(=C/C(=O)OC)C[C@H]2C[C@H]([C@@H](C)O)OC(=O)C[C@H](O)C[C@@H]3C[C@H](OC(C)=O)C(C)(C)[C@](O)(C[C@@H]4C/C(=C/C(=O)OC)C[C@H](/C=C/C(C)(C)[C@]1(O)O2)O4)O3 [Bryostatin 1] | 0 | 0 | 0.2 | 2.8 | > 0.1 | > 0.1 | > 0.1 | > 0.1 |
| Nc1cc(C(F)(F)F)c(-c2cc(N3CCOCC3)nc(N3CCOCC3)n2)cn1 [Buparlisib] | 0.4 | 0 | 7 | 4.2 | 1.78 | 3.13 | > 10 | > 10 |

| SMILES | drug sensitivity score (DLD1 NRF2-WT [1]) | drug sensitivity score (DLD1 NRF2-GOF [2]) | drug sensitivity score (DLD1 NRF2-WT [3]) | drug sensitivity score (DLD1 NRF2-GOF [4]) | EC50 viability (DLD1 NRF2-WT [5]) [µM] | EC50 viability (DLD1 NRF2-GOF [6]) [µM] | TC50 cytotoxicity (DLD1 NRF2-WT [7]) [µM] | TC50 cytotoxicity (DLD1 NRF2-GOF [8]) [µM] |
| --- | --- | --- | --- | --- | --- | --- | --- | --- |
| CO[C@H]1CC[C@H](N2C(=O)CNc3ncc(-c4ccc(C(C)(C)O)nc4)nc32)CC1 [CC-223] | 0 | 0.1 | 4.6 | 5.3 | 2.25 | 1.71 | > 10 | > 10 |
| COc1cc(C)[nH]c(=O)c1CNC(=O)c1c(C)n([C@H](C)C2CCOCC2)c2ccccc12 [CPI-360] | 0 | 0 | 0 | 7.4 | > 10 | 0.198 | > 10 | > 10 |
| COc1cc2nccc(Oc3ccc(NC(=O)C4(C(=O)Nc5ccc(F)cc5)CC4)cc3)c2cc1OC [Cabozantinib] | 0 | 0 | 0 | 1.1 | > 1 | > 1 | > 1 | > 1 |
| C=CC(=O)Nc1cc2c(Nc3ccc(F)c(Cl)c3)ncnc2cc1OCCCN1CCOCC1 [Canertinib] | 7.1 | 5.5 | 8.1 | 6.8 | 1.97 | 2.52 | 2.39 | 3.21 |
| CNC(=O)c1ccc(-c2cnc3ncc(Cc4ccc5ncccc5c4)n3n2)cc1F [Capmatinib] | 0 | 0 | 0 | 0 | > 1 | > 1 | > 1 | > 1 |
| CC(C)C[C@H](NC(=O)[C@H](CCc1ccccc1)NC(=O)CN1CCOCC1)C(=O)N[C@@H](Cc1ccccc1)C(=O)N[C@@H](CC(C)C)C(=O)[C@@]1(C)CO1 [Carfilzomib] | 26.9 | 22.3 | 26.6 | 25.8 | 0.0065 | 0.0075 | 0.0061 | 0.0143 |
| COc1cc2c(Oc3ccc4[nH]c(C)cc4c3F)ncnc2cc1OCCCN1CCCC1 [Cediranib] | 0 | 0 | 7 | 10.2 | 0.0442 | 0.0121 | > 1 | > 1 |
| CCS(=O)(=O)N1CCN(c2ccc(Nc3ncc(C(N)=O)c(NC4CC4)n3)cc2)CC1 [Cerdulatinib] | 0 | 0 | 4.3 | 13.8 | 0.323 | 0.0649 | > 10 | > 10 |
| Cc1cc(Nc2ncc(Cl)c(Nc3ccccc3S(=O)(=O)C(C)C)n2)c(OC(C)C)cc1C1CCNCC1 [Ceritinib] | 0 | 0 | 5.2 | 4.2 | 0.546 | 0.728 | > 2.5 | > 2.5 |
| CCN(CC)CCCC(C)Nc1ccnc2cc(Cl)ccc12 (stereo not drawn) [Chloroquine] | 6 | 5 | 13.8 | 11.8 | 6.41 | 9.78 | 26.1 | 25.8 |
| CC(C)[C@H]1C(=O)N[C@@H](CCCNC(=N)N)C(=O)NCC(=O)N[C@@H](CC(=O)O)C(=O)N[C@H](Cc2ccccc2)C(=O)N1C [Cilengitide] | 0 | 0 | 0 | 3.9 | > 10 | 0.315 | > 10 | > 10 |
| Nc1nc(Cl)nc2c1ncn2[C@H]1C[C@H](O)[C@@H](CO)O1 [Cladribine] | 0 | 0 | 10.4 | 5.5 | 0.0256 | 0.145 | > 1 | > 1 |
| Nc1nc(Cl)nc2c1ncn2[C@@H]1O[C@H](CO)[C@@H](O)[C@@H]1F [Clofarabine] | 0 | 0 | 11.8 | 13.2 | 0.166 | 0.171 | > 10 | > 10 |
| COc1c(OCCCN2CCOCC2)ccc2c1N=C(NC(=O)c1cnc(N)nc1)N1CCN=C21 [Copanlisib] | 0.8 | 0 | 8.1 | 2.9 | 0.0664 | 0.199 | > 1 | > 1 |
| CC1(COc2ccc3c(c2)ncn3-c2ccc3cccc(N4CCC(N)CC4)c3n2)COC1 [Crenolanib] | 4.3 | 6.1 | 10.9 | 9.3 | 1.03 | 1.46 | 2.65 | 2.89 |
| Nc1ccn([C@@H]2O[C@H](CO)[C@@H](O)[C@@H]2O)c(=O)n1 [Cytarabine] | 0 | 0 | 5 | 6.5 | 0.65 | 0.477 | > 10 | > 10 |
| CC(C)(C)c1nc(-c2cccc(NS(=O)(=O)c3c(F)cccc3F)c2F)c(-c2ccnc(N)n2)s1 [Dabrafenib] | 0 | 0 | 1.4 | 0.6 | 0.993 | > 2.5 | > 2.5 | > 2.5 |
| COc1cc2ncnc(Nc3ccc(F)c(Cl)c3)c2cc1NC(=O)/C=C/CN1CCCCC1 [Dacomitinib] | 0 | 0 | 5.9 | 2.4 | 0.0964 | 0.247 | > 1 | > 1 |
| Cn1c(=O)n(-c2ccc(C(C)(C)C#N)cc2)c2c3cc(-c4cnc5ccccc5c4)ccc3ncc21 [Dactolisib] | 0 | 0 | 13.9 | 9.8 | 0.0132 | 0.0261 | > 1 | > 1 |
| CO[C@@H](C(=O)N1Cc2[nH]nc(NC(=O)c3ccc(N4CCN(C)CC4)cc3)c2C1)c1ccccc1 [Danusertib] | 2.4 | 0 | 10.4 | 16.6 | 0.357 | 0.0921 | > 10 | > 10 |
